Data as given in the supplement of paper PMC10307832.

Legend:
Assay in all cases: relative viability (nuclei count vs DMSO), 5 days (fraction); higher = more cells survive
[1] = compound: CCC1=CN=CN=C1N2CCN(CC2)CC3=NC4=C(N3)C=C(C=C4)C(F)(F)F + CC(=O)c1c(C)c2cnc(Nc3ccc(N4CCNCC4)cn3)nc2n(C2CCCC2)c1=O [Palbociclib] (partner 0.5 µM)
How it was run: (§1)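 Relative viability is defined as nuclei in treated wells over nuclei in vehicle wells. Duplicate plates were run and medians reported. Lung cancer cell lines in 1536-well plates were dosed by pin tool one day after seeding, with one drug or with a fixed anchor-drug dose plus five library-drug doses (not always all listed) in √10 steps, and nuclei were counted after 5 days.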

[2] = compound: CCC1=CN=CN=C1N2CCN(CC2)CC3=NC4=C(N3)C=C(C=C4)C(F)(F)F + CS(=O)(=O)N1CCN(Cc2cc3nc(-c4cccc5[nH]ncc45)nc(N4CCOCC4)c3s2)CC1 [Pictilisib] (partner 1 µM)
How it was run: as §1

[3] = compound: CCn1c(-c2nonc2N)nc2cnc(Oc3cccc(NC(=O)c4ccc(OCCN5CCOCC5)cc4)c3)cc21 + CS(=O)(=O)CCNCc1ccc(-c2ccc3ncnc(Nc4ccc(OCc5cccc(F)c5)c(Cl)c4)c3c2)o1 [Lapatinib] (partner 2 µM)
How it was run: as §1

[4] = compound: CCn1c(-c2nonc2N)nc2cnc(Oc3cccc(NC(=O)c4ccc(OCCN5CCOCC5)cc4)c3)cc21 + O=C(c1cc(Cc2n[nH]c(=O)c3ccccc23)ccc1F)N1CCN(C(=O)C2CC2)CC1 [Olaparib] (partner 8 µM)
How it was run: as §1

Row | Cell Line | relative viability ([1]; first compound 0.04 µM) | relative viability ([1]; first compound 0.1265 µM) | relative viability ([1]; first compound 0.4 µM) | relative viability ([1]; first compound 1.265 µM) | relative viability ([1]; first compound 4 µM) | relative viability ([2]; first compound 0.04 µM) | relative viability ([2]; first compound 0.1265 µM) | relative viability ([2]; first compound 0.4 µM) | relative viability ([2]; first compound 1.265 µM) | relative viability ([2]; first compound 4 µM) | relative viability ([3]; first compound 0.04 µM) | relative viability ([3]; first compound 0.1265 µM) | relative viability ([3]; first compound 0.4 µM) | relative viability ([3]; first compound 1.265 µM) | relative viability ([3]; first compound 4 µM) | relative viability ([4]; first compound 0.04 µM) | relative viability ([4]; first compound 0.1265 µM) | relative viability ([4]; first compound 0.4 µM) | relative viability ([4]; first compound 1.265 µM) | relative viability ([4]; first compound 4 µM)
1 | PC-14 | 0.519 | 0.518 | 0.548 | 0.608 | 0.506 | 0.845 | 0.621 | 0.671 | 0.573 | 0.6 | 0.343 | 0.227 | 0.232 | 0.264 | 0.283 | 0.27 | 0.206 | 0.287 | 0.309 | 0.326
2 | NCI-H1666 | 0.609 | 0.609 | 0.669 | 0.659 | 0.608 | 0.569 | 0.402 | 0.417 | 0.498 | 0.501 | 0.792 | 0.777 | 0.592 | 0.498 | 0.329 | 0.718 | 0.863 | 0.702 | 0.717 | 0.551
3 | NCI-H1944 | 0.399 | 0.358 | 0.298 | 0.309 | 0.303 | 0.361 | 0.335 | 0.325 | – | 0.328 | 0.822 | 0.699 | – | 0.691 | 0.553 | 0.42 | 0.419 | 0.358 | 0.386 | 0.327
4 | NCI-H2023 | 0.422 | 0.347 | 0.358 | 0.376 | 0.345 | 0.274 | 0.225 | 0.216 | 0.192 | 0.319 | 1.25 | 0.797 | 0.515 | 0.555 | 0.373 | 0.472 | 0.438 | 0.408 | 0.264 | 0.245
5 | NCI-H1755 | 0.475 | 0.478 | 0.45 | 0.437 | 0.49 | 0.384 | 0.377 | 0.372 | 0.19 | 0.371 | 1.11 | 0.928 | 0.713 | 0.641 | 0.6 | 0.89 | 0.891 | 0.864 | 0.851 | 0.833
6 | NCI-H2347 | 0.386 | 0.396 | 0.424 | 0.368 | 0.422 | 0.58 | 0.591 | 0.652 | – | 0.671 | 0.833 | 0.911 | 0.704 | 0.446 | 0.536 | 0.549 | 0.587 | 0.824 | 0.383 | 0.448
7 | ABC-1 | – | – | 0.543 | 0.628 | 0.547 | 0.587 | 0.955 | 0.69 | 0.665 | 0.646 | 1.3 | 0.997 | – | – | 1.08 | 0.632 | 0.589 | 0.74 | 0.386 | 0.458
8 | 201T | 0.331 | 0.348 | 0.367 | 0.375 | 0.344 | 0.708 | 0.652 | 0.658 | 0.514 | 0.801 | 1.07 | 0.967 | 0.78 | 0.911 | 0.868 | 0.859 | 0.933 | 0.817 | 0.812 | 0.769
